Laboratory results as given in ChEMBL document CHEMBL1126161, “3,4-Dihydroquinolin-2(1H)-ones as combined inhibitors of thromboxane A2 synthase and cAMP phosphodiesterase” (J Med Chem, 1992).

Tests used:
[1] = tested on: Mus musculus; assay: Protection against mortality in pulmonary thromboembolism model in mice at 1 mg/kg; assay type: functional
[2] = species on record: Homo sapiens; assay: Inhibition of [14C]arachidonic acid induced platelet aggregation at 10 uM (Control TXB2 = 14.9+/-2.5); assay type: functional
[3] = tested on: Mus musculus; assay: Protection against mortality in pulmonary thromboembolism model in mice at 3 mg/kg; assay type: functional
[4] = species on record: Homo sapiens; assay: In vitro inhibition of ADP-induced aggregation of human PRP in the presence of pig aortal microsomes (PAM).; assay type: functional
[5] = species on record: Homo sapiens; assay: Inhibition of [14C]arachidonic acid induced 6-keto-PGF1-alpha formation at 10 uM (Control 6-keto-PGF1-alpha = 1.45+/-0.6)
[6] = species on record: Homo sapiens; assay: Inhibition of [14C]arachidonic acid induced platelet aggregation at 1 uM (Control TXB2 = 14.9+/-2.5); assay type: functional
[7] = target: Phosphodiesterase 3 (Homo sapiens, UniProt Q14432+Q13370); assay: Inhibition of human blood platelet c-AMP phosphodiesterase
[8] = tested on: Rattus norvegicus; assay: Ex vivo inhibition of blood platelet aggregation in rats at 50 mg/kg peroral dose after 3 hr; assay type: functional; conditions: route oral
[9] = tested on: Rattus norvegicus; assay: Ex vivo inhibition of blood platelet aggregation in rats at 50 mg/kg peroral dose after 8 hr; assay type: functional; conditions: route oral
[10] = tested on: Rattus norvegicus; assay: Antihypertensive activity in conscious spontaneously hypertensive rat (SHR), percent change in heart rate (beats/min) after 4 hr; assay type: functional
[11] = tested on: Rattus norvegicus; assay: Effect of TXA2 synthase inhibitor (compound) on serum TXB2 level in rats at 50 mg/kg po, after 2 hr; assay type: functional
[12] = tested on: Mus musculus; assay: Protection against mortality in pulmonary thromboembolism model in mice at 10 mg/kg; assay type: functional
[13] = tested on: Rattus norvegicus; assay: Ex vivo inhibition of blood platelet aggregation in rats at 50 mg/kg peroral dose after 5 hr; assay type: functional; conditions: route oral
[14] = tested on: Rattus norvegicus; assay: (§1) Antihypertensive activity in conscious spontaneously hypertensive rat (SHR), percent change in Systolic blood pressure (SBP) after 1 hr; assay type: functional
[15] = target: T1, Thromboxane-A synthase (Homo sapiens, UniProt P24557); assay: Compound was evaluated for the inhibition of human blood platelet, thromboxane A2 synthase
T1 sequence (P24557 whole entry): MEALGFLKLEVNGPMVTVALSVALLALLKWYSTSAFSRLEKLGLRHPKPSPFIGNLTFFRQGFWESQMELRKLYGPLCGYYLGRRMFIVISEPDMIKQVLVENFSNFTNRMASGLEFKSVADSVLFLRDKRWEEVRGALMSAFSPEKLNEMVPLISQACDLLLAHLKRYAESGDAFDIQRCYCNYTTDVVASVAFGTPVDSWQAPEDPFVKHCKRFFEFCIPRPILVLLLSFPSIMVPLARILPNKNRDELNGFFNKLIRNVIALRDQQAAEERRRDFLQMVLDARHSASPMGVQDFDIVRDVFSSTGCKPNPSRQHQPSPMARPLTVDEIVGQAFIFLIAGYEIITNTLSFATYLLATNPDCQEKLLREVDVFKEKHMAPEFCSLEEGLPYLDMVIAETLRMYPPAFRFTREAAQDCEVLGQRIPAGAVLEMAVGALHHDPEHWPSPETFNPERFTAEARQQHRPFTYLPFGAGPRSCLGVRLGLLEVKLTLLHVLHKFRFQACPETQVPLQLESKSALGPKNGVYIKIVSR

[16] = tested on: Rattus norvegicus; assay: Antihypertensive activity in conscious spontaneously hypertensive rat (SHR), percent change in heart rate (beats/min) after 1 hr; assay type: functional
[17] = species on record: Homo sapiens; assay: Inhibition of ADP-induced aggregation of human PRP in the absence of pig aortal microsomes (PAM); assay type: functional
[18] = tested on: Mus musculus; assay: Protection against mortality in pulmonary thromboembolism model in mice at 30 mg/kg; assay type: functional
[19] = species on record: Homo sapiens; assay: Ratio of IC50(PDE)/IC50(TXA2); assay type: functional
[20] = species on record: Homo sapiens; assay: Ratio of IC50(w/oPAM)/IC50(w/PAM); assay type: functional
[21] = tested on: Rattus norvegicus; assay: Antihypertensive activity in conscious spontaneously hypertensive rat (SHR), percent change in heart rate (beats/min) after 2 hr; assay type: functional
[22] = tested on: Rattus norvegicus; assay: Antihypertensive activity in conscious spontaneously hypertensive rat (SHR), percent change in Systolic blood pressure (SBP) after 2 hr; assay type: functional
[23] = tested on: Rattus norvegicus; assay: Antihypertensive activity in conscious spontaneously hypertensive rat (SHR), percent change in Systolic blood pressure (SBP) after 4 hr; assay type: functional
[24] = species on record: Homo sapiens; assay: Inhibition of [14C]arachidonic acid induced platelet TXB2 formation at 0.1 uM (Control TXB2 = 14.9+/-2.5)
[25] = species on record: Homo sapiens; assay: Inhibition of [14C]arachidonic acid conversion to 6-keto-PGF1-alpha in platelets at 1 uM (Control 6-keto-PGF1-alpha = 1.45+/-0.6)
[26] = tested on: Rattus norvegicus; assay: Antihypertensive activity in conscious spontaneously hypertensive rat (SHR), percent change in heart rate (beats/min) after 2 hr at 10 mg/kg peroral dose; assay type: functional; conditions: route oral
[27] = tested on: Rattus norvegicus; assay: Antihypertensive activity in conscious spontaneously hypertensive rat (SHR), percent change in heart rate (beats/min) after 4 hr at 10 mg/kg peroral dose; assay type: functional; conditions: route oral
[28] = tested on: Rattus norvegicus; assay: Antihypertensive activity in conscious spontaneously hypertensive rat (SHR), percent change in heart rate (beats/min) after 1 hr at 10 mg/kg peroral dose; assay type: functional; conditions: route oral
[29] = tested on: Rattus norvegicus; assay: Antihypertensive activity in conscious spontaneously hypertensive rat (SHR), percent change in Systolic blood pressure (SBP) after 2 hr at 10 mg/kg peroral dose; assay type: functional; conditions: route oral
[30] = tested on: Rattus norvegicus; assay: as §1; assay type: functional; set-up: concentration or dose not given beside the values
[31] = tested on: Rattus norvegicus; assay: Antihypertensive activity in conscious spontaneously hypertensive rat (SHR), percent change in Systolic blood pressure (SBP) after 4 hr at 10 mg/kg peroral dose; assay type: functional; conditions: route oral
[32] = species on record: Mus musculus; assay: Time course of protection against mortality in a pulmonary thromboembolism model in mice after -7h; assay type: functional
[33] = species on record: Mus musculus; assay: Time course of protection against mortality in a pulmonary thromboembolism model in mice after -5h; assay type: functional
[34] = species on record: Mus musculus; assay: Time course of protection against mortality in a pulmonary thromboembolism model in mice after -3h; assay type: functional
[35] = tested on: Mus musculus; assay: Protection against mortality in pulmonary thromboembolism model in mice at 12 mg/kg; assay type: functional
[36] = species on record: Homo sapiens; assay: Inhibition of ADP-induced platelet aggregation of human PRP in the presence of pig aortal microsomes (PAM); assay type: functional
[37] = species on record: Homo sapiens; assay: Inhibition of ADP-induced platelet aggregation of human PRP without pig aortal microsomes (PAM); assay type: functional
[38] = species on record: Mus musculus; assay: Time course of protection against mortality in a pulmonary thromboembolism model in mice after -1h; assay type: functional
[39] = tested on: Mus musculus; assay: Protection against mortality in pulmonary thromboembolism model in mice at 9 mg/kg; assay type: functional
[40] = tested on: Rattus norvegicus; assay: Antihypertensive activity in conscious spontaneously hypertensive rat (SHR), percent change in Systolic blood pressure (SBP) after 1 hr at 10 mg/kg peroral dose; assay type: functional; conditions: route oral

Structure (SMILES): O=C1CCc2cc(-c3cccnc3)ccc2N1
- survival at 1 mg/kg [1]: 20%
- TXB2 level at 10 µM [2]: 4.5%
- survival at 3 mg/kg [3]: 40%
- IC50 [4]: 0.54 µM
- 6-keto-PGF1α level at 10 µM [5]: 31.9%
- TXB2 level at 1 µM [6]: 14.8%
- IC50 [7]: 4.4 µM
- inhibition in vivo at 50 mg/kg [8]: 94.7%
- inhibition in vivo at 50 mg/kg [9]: 4.7%
- Change in heart rate [10]: 13%
- inhibition in vivo at 50 mg/kg [11]: 94%
- survival at 10 mg/kg [12]: 40%
- inhibition in vivo at 50 mg/kg [13]: 53.2%
- Change systolic BP [14]: -42%
- IC50 [15]: 0.54 µM
- Change in heart rate [16]: 13%
- IC50 [17]: 27 µM
- survival at 30 mg/kg [18]: 50%
- Ratio [19]: 8.1
- Ratio [20]: 50
- Change in heart rate [21]: 18%
- Change systolic BP [22]: -28%
- Change systolic BP [23]: -22%
- TXB2 level at 0.1 µM [24]: 21.1%
- 6-keto-PGF1α level at 1 µM [25]: 7.7%

Structure (SMILES): O=C1CCc2cc(/C(=C/c3cccnc3)c3ccccc3)ccc2N1
- IC50 [4]: 170 µM

Structure (SMILES): O=C1CCc2cc(C#CCn3ccnc3)ccc2N1
- Change in heart rate [26]: 11%
- Change in heart rate [27]: 11%
- Change in heart rate [28]: 9%
- Change systolic BP [29]: -5%
- Change systolic BP [30]: -3%
- Change systolic BP [31]: -15%

Structure (SMILES): CC(Cc1cccnc1)c1ccc2c(c1)CCC(=O)N2 (stereo unspecified)
- IC50 [4]: 35 µM

Structure (SMILES): Cc1c(Cn2ccnc2)c2ccccc2n1CCC(=O)O [DAZMEGREL]
- Survival [32]: 10%
- survival at 1 mg/kg [1]: 30%
- Survival [33]: 0%
- survival at 3 mg/kg [3]: 30%
- Survival [34]: 20%
- survival at 12 mg/kg [35]: 60%
- IC50 [36]: 2 µM
- IC50 [37]: 97 µM
- survival at 30 mg/kg [18]: 20%
- Survival [38]: 11%
- survival at 9 mg/kg [39]: 50%

Structure (SMILES): CCCCC/C(=C\c1cccnc1)c1ccc2c(c1)CCC(=O)N2
- IC50 [4]: 58 µM

Structure (SMILES): Cc1[nH]c(=O)c(C#N)cc1-c1ccncc1 [MILRINONE]
- Change in heart rate [26]: 36%
- Change in heart rate [27]: 45%
- Change systolic BP [40]: -65%
- Change in heart rate [28]: 11%
- Change systolic BP [29]: -54%
- Change systolic BP [31]: -47%
